Data from article PMC7615792 (ACS catalysis, 2023).

Legend:
AtzB = biological target: T1, AtzB (Pseudomonas sp. ADP, UniProt P95442); assay: direct photometric steady-state assay, spectrophotometer; assay type: biochemical; conditions: 50 mM potassium phosphate pH 7.5, 25 °C
T1 sequence (P95442 1-481): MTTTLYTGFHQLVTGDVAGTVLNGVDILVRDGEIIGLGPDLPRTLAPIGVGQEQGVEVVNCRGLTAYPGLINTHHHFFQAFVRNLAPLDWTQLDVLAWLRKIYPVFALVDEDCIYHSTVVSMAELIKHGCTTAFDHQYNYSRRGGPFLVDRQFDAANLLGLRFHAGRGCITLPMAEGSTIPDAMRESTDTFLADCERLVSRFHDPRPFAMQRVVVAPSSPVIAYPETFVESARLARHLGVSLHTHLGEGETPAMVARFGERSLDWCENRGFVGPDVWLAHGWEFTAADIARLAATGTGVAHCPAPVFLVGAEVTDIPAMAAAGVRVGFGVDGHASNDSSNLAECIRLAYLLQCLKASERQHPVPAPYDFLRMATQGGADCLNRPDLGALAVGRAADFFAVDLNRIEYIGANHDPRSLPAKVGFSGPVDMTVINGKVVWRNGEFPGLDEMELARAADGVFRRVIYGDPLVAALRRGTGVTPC

AtzB_Hom_Hal = biological target: T2, AtzB_Hom_Hal (Mangrovimicrobium sediminis, UniProt A0A4Z0M5D5); assay: as above; assay type: biochemical; conditions: 50 mM potassium phosphate pH 7.5, 25 °C
T2 sequence (A0A4Z0M5D5 1-465): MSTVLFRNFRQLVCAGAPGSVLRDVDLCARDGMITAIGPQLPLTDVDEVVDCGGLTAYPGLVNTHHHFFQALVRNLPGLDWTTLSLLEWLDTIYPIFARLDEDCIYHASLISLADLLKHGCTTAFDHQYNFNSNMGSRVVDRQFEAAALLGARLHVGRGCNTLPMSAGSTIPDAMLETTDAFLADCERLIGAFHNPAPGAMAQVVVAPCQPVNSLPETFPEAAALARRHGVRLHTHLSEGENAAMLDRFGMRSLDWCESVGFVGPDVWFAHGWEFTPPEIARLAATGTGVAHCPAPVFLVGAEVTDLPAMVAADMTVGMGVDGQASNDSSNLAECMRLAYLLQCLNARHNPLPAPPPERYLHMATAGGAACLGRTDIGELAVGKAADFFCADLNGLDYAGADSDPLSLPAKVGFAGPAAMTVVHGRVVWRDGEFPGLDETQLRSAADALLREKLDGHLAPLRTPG

| SMILES | kcat/KM (AtzB) | KM (AtzB_Hom_Hal) |
| --- | --- | --- |
| Nc1nc2[nH]cnc2c(=O)[nH]1 [guanine] | represents an increase of about three orders of magnitude compared to AtzB |  |
| CCNc1nc(O)nc(NC(C)C)n1 [II, hydroxyatrazine] |  | promiscuous hydroxyatrazine hydrolase activities of AtzB_Hom_Hal and AtzB_Hom_Pleo |
